From US20100184802A1, “Bicycloheteroaryl Compounds as P2X7 Modulators and Uses Thereof” (priority 2006, published 2010)

Biological target: T1, P2X7 receptor (IL-1β release from THP-1 cells) (Homo sapiens, UniProt Q99572)
T1 construct: host or cells: THP-1 cells differentiated with LPS and IFN-γ
T1 sequence (Q99572 1-595): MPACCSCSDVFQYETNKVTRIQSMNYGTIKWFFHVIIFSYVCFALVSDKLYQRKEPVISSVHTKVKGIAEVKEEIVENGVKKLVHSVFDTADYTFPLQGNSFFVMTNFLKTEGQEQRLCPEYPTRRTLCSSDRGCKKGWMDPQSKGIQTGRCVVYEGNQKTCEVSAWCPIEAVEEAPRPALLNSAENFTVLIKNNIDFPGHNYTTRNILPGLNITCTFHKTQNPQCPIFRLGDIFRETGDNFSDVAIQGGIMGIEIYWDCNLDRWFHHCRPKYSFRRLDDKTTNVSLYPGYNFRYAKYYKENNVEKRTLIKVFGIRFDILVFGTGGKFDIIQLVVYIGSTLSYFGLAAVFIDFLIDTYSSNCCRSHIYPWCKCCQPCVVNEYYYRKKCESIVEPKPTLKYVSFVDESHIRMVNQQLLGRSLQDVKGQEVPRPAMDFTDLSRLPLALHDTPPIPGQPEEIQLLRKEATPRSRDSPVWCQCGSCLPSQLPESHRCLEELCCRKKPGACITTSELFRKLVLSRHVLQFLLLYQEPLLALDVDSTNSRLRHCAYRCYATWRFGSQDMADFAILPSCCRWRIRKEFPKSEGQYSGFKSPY
Experiment: IL-1β release assay in differentiated THP-1 cells stimulated with BzATP (Example 9)
Format: cell-based
Details: for inhibition at 0.3 µM: 0.3 μM concentration; for inhibition at 0.3 µM / inhibition at 0.1 µM: BzATP 250 uM, read-out: IL-1β % Inhib. @ 0.3 or 0.1 μM; for IC50: released IL-1β as in Example 9, four parameter logistic fit; for inhibition at 0.1 µM: 0.1 μM concentration
Method: The cells are then pretreated for 30 minutes with the compound of interest at the appropriate concentration in RPMI media containing 100 IU/mL penicillin, 100 ug/mL streptomycin. […] 30 uL of cell supernatant is then collected and IL-1β levels determined via ELISA (R&D systems Cat. #HSLB50) according to manufacturer's recommendations using the Tecan Safire plate reader. Background adjusted IL-1β levels of drug treated and non-treated cells are used to calculate the percent inhibition.
The compounds set forth in Table 1 were tested for activity in a cellular model as described herein. […] Measurements were made and IC50 values, presented in Table 2, below, were determined by fitting the data to a four parameter logistic equation using GraphPad Prism software (GraphPad Software, Inc). The equation may be expressed by the following formula:
Y=Bottom+(Top−Bottom)/(1+10̂((Log EC50−X)*HillSlope))
Where X is the logarithm of concentration, Y is the response and Y starts at Bottom and goes to Top with a sigmoid shape.

| inhibition at 0.3 µM [%] | IC50 [nM] | inhibition at 0.1 µM [%] | SMILES |
| --- | --- | --- | --- |
| > 76 | 1.8 |  | CC1(C)CC(CC(=O)Nc2cccc3c(=O)n(CCO)ccc23)CC(C)(C)C1 [Compound 584, N-[2-(2-Hydroxy-ethyl)-1-oxo-1,2-dihydro-isoquinolin-5-yl]-2-(3,3,5,5-tetramethylcyclohexyl)-acetamide] |
| > 76 | 8.3 |  | CC(C)C[C@H](CO)n1ccc2c(NC(=O)CC3CCCCCC3)cccc2c1=O [Compound 590] |
| > 76 | 1.04 |  | NC(=O)CCn1ccc2c(NC(=O)CC34CC5CC(CC(C5)C3)C4)cccc2c1=O [Compound 510] |
| > 76 | 135 |  | CC1(C)CC(C)(C)CC(O)(CC(=O)Nc2cccc3c(=O)n(CCO)ccc23)C1 [Compound 546] |
| 51 to 75 |  |  | CC(=O)NCCn1ccc2c(NC(=O)CC3CCCCCC3)cccc2c1=O [Compound 611, N-[2-(2-Acetylamino-ethyl)-1-oxo-1,2-dihydro-isoquinolin-5-yl]-2-cycloheptyl-acetamide] |
| > 76 | 81.3 |  | CC1(C)CC(C)(C)CC(O)(CC(=O)Nc2cccc3c(=O)n(C(CO)CO)ccc23)C1 [Compound 573] |
| > 76 | 4.13 |  | CC(C(N)=O)n1ccc2c(NC(=O)CC34CC5CC(C)(CC(C)(C5)C3)C4)cccc2c1=O (stereo not drawn) [Compound 531] |
| > 76 | 75.6 |  | O=C(CC1CCCCCC1)Nc1cccc2c(=O)n(C(CO)CO)ccc12 [Compound 560, 2-Cycloheptyl-N-[2-(2-hydroxy-1-hydroxymethyl-ethyl)-1-oxo-1,2-dihydro-isoquinolin-5-yl]-acetamide] |
| 0 to 25 | 906 |  | O=C(CC1CCCCC1)Nc1cccc2c(=O)n(CCO)ccc12 [Compound 545] |
| 51 to 75 | 203 |  | CC1(C)CCCC(O)(CC(=O)Nc2cccc3c(=O)n(C(CO)CO)ccc23)C1 (stereo not drawn) [Compound 553] |

Continued, compound first:

| SMILES | inhibition at 0.3 µM [%] | IC50 [nM] | inhibition at 0.1 µM [%] |
| --- | --- | --- | --- |
| C[C@H](C(=O)O)n1ccc2c(NC(=O)CC3CCCCCC3)cccc2c1=O [Compound 607, (R)-2-[5-(2-Cycloheptyl-acetylamino)-1-oxo-1H-isoquinolin-2-yl]-propionic acid] | > 76 | 92.1 |  |
| CC(O)Cn1ccc2c(NC(=O)C34C[C@@H]5C[C@@H](C[C@@H]3C5)C4)cccc2c1=O (stereo partly drawn) [Compound 566] |  |  | 0 to 25 |
| CC(C)[C@H](C(=O)O)n1ccc2c(NC(=O)CC3CCCCCC3)cccc2c1=O [Compound 610] | > 76 | 44.7 |  |
| O=C(CC1CCCCCC1)Nc1cccc2c(=O)n(C[C@H]3CCCN3)ccc12 [Compound 576] | > 76 |  |  |
| NC(=O)[C@@H](CC1CCCCC1)n1ccc2c(NC(=O)CC34CC5CC(CC(C5)C3)C4)cccc2c1=O [Compound 513] | > 76 | 33.7 |  |
| CC(C)C[C@H](CO)n1ccc2c(NC(=O)CC34CC5CC(CC(C5)C3)C4)cccc2c1=O [Compound 585, 2-Adamantan-1-yl-N-[2-((R)-1-hydroxymethyl-3-methyl-butyl)-1-oxo-1,2-dihydro-isoquinolin-5-yl]-acetamide] | > 76 | 1.38 |  |
| C[C@@H](C(N)=O)n1ccc2c(NC(=O)CC34CC5CC(CC(O)(C5)C3)C4)cccc2c1=O [Compound 574] | 0 to 25 | > 1000 |  |
| C[C@H](C(N)=O)n1ccc2c(NC(=O)[C@H](C)C3CCCCCC3)cccc2c1=O [Compound 608] | > 76 | 70.8 |  |
| CC(C)[C@H](C(N)=O)n1ccc2c(NC(=O)CC34CC5CC(CC(C5)C3)C4)cccc2c1=O [Compound 528] | > 76 | 0.181 |  |
| CC1CNC(CN2CCc3c(NC(=O)CC45CC6CC(CC(C6)C4)C5)cccc3C2=O)CN1 (stereo not drawn) [Compound 503] |  |  | > 76 |
| C[C@@H](C(N)=O)n1ccc2c(NC(=O)CC3(O)CCCCCC3)cccc2c1=O [Compound 557] | 26 to 50 | 355 |  |
| CC(C)(O)Cn1ccc2c(NC(=O)C3C[C@@H]4CC[C@H]3C4)cccc2c1=O (stereo partly drawn) [Compound 571] |  |  | 26 to 50 |
